Tested on: CN0375-F725-PDC KRAS spheroid viability
Test: Anticancer human tumor CN0375-F725-PDC patient-derived colon carcinoma cell line growth inhibition [KRAS2]
Conditions: spheroids with HUVEC and MSC; for IC50: curve of first compound; for viability, T/C: stronger effect = lower value
Summary of the method: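 KRAS-mutant tumor cells were grown as spheroids with HUVEC endothelial cells and human MSCs as stroma. Targeted agents were tested alone and with KRAS pathway inhibitors. Doses started at or near clinical Cmax, or 10 microM, descending half-log.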

[1] = second compound 0.0316 µM, first compound 0.0316 µM
[2] = second compound 0.0316 µM, first compound 0.1 µM
[3] = second compound 0.0316 µM, first compound 0.316 µM
[4] = second compound 0.0316 µM, first compound 1 µM
[5] = second compound 0.1 µM, first compound 0.0316 µM
[6] = second compound 0.1 µM, first compound 0.1 µM
[7] = second compound 0.1 µM, first compound 0.316 µM
[8] = second compound 0.1 µM, first compound 1 µM
[9] = second compound 0.316 µM, first compound 0.0316 µM
[10] = second compound 0.316 µM, first compound 0.1 µM
[11] = second compound 0.316 µM, first compound 0.316 µM
[12] = second compound 0.316 µM, first compound 1 µM
[13] = second compound 1 µM, first compound 0.0316 µM
[14] = second compound 1 µM, first compound 0.1 µM
[15] = second compound 1 µM, first compound 0.316 µM
[16] = second compound 1 µM, first compound 1 µM
[17] = second compound 3.16 µM, first compound 0.0316 µM
[18] = second compound 3.16 µM, first compound 0.1 µM
[19] = second compound 3.16 µM, first compound 0.316 µM
[20] = second compound 3.16 µM, first compound 1 µM
[21] = second compound 0.0316 µM, first compound 0.00316 µM
[22] = second compound 0.0316 µM, first compound 0.01 µM
[23] = second compound 0.1 µM, first compound 0.00316 µM
[24] = second compound 0.1 µM, first compound 0.01 µM
[25] = second compound 0.316 µM, first compound 0.00316 µM
[26] = second compound 0.316 µM, first compound 0.01 µM
[27] = second compound 1 µM, first compound 0.00316 µM
[28] = second compound 1 µM, first compound 0.01 µM
[29] = second compound 3.16 µM, first compound 0.00316 µM
[30] = second compound 3.16 µM, first compound 0.01 µM
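Note: spheroids exposed to agents for 7 days.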

SMILES	IC50 (second compound 0.0316 µM) [nM]	IC50 (second compound 0.1 µM) [nM]	IC50 (second compound 0.316 µM) [nM]	IC50 (second compound 1 µM) [nM]	IC50 (second compound 3.16 µM) [nM]	viability, T/C [1] [%]	viability, T/C [2] [%]	viability, T/C [3] [%]	viability, T/C [4] [%]	viability, T/C [5] [%]	viability, T/C [6] [%]	viability, T/C [7] [%]	viability, T/C [8] [%]	viability, T/C [9] [%]	viability, T/C [10] [%]	viability, T/C [11] [%]	viability, T/C [13] [%]	viability, T/C [14] [%]	viability, T/C [17] [%]	viability, T/C [18] [%]	other results
CC(C)NCC(C(=O)N1CCN(c2ncnc3c2C(C)CC3O)CC1)c1ccc(Cl)cc1 (stereo not given) + C=CC(=O)N1CCN(c2nc(OCC3CCCN3C)nc3c2CCN(c2cccc4cccc(C)c24)C3)CC1CC#N	> 10000	> 10000	> 10000	> 10000	< 31.6	106	105	101	93	106	103	98	91.7	101	108	94.6	103	102	19.5	14.7	viability, T/C (second compound 0.0316 µM, first compound 3.16 µM): 94.2%; viability, T/C (second compound 0.0316 µM, first compound 10 µM): 83.2%; viability, T/C (second compound 0.1 µM, first compound 3.16 µM): 91.4%; viability, T/C (second compound 0.1 µM, first compound 10 µM): 78.2%; viability, T/C [12]: 87.8%; viability, T/C (second compound 0.316 µM, first compound 3.16 µM): 85.3%; viability, T/C (second compound 0.316 µM, first compound 10 µM): 71.4%; viability, T/C [15]: 92.5%; viability, T/C [16]: 76.8%; viability, T/C (second compound 1 µM, first compound 3.16 µM): 70.9%; viability, T/C (second compound 1 µM, first compound 10 µM): 58.2%; viability, T/C [19]: 13.5%; viability, T/C [20]: 4.72%; viability, T/C (second compound 3.16 µM, first compound 3.16 µM): 3.97%; viability, T/C (second compound 3.16 µM, first compound 10 µM): 1.46%
CCN1CCN(Cc2ccc(Nc3ncc(F)c(-c4cc(F)c5nc(C)n(C(C)C)c5c4)n3)nc2)CC1 + C=CC(=O)N1CCN(c2nc(OCC3CCCN3C)nc3c2CCN(c2cccc4cccc(C)c24)C3)CC1CC#N	> 1000	> 1000	> 1000	> 1000	< 3.16	90.5	91.8	111	99.8	88.1	94.6	104	91.2	85.5	89.4	95.2	86.9	83.9	17.9	15.3	viability, T/C [21]: 110%; viability, T/C [22]: 94.4%; viability, T/C [23]: 103%; viability, T/C [24]: 96.8%; viability, T/C [25]: 104%; viability, T/C [26]: 99.7%; viability, T/C [12]: 91.5%; viability, T/C [27]: 95.4%; viability, T/C [28]: 99.6%; viability, T/C [15]: 85.1%; viability, T/C [16]: 89.8%; viability, T/C [29]: 34.7%; viability, T/C [30]: 31.3%; viability, T/C [19]: 20.3%; viability, T/C [20]: 1.83%
Cn1ncnc1[C@H]1c2n[nH]c(=O)c3cc(F)cc(c23)N[C@@H]1c1ccc(F)cc1 + C=CC(=O)N1CCN(c2nc(OCC3CCCN3C)nc3c2CCN(c2cccc4cccc(C)c24)C3)CC1CC#N	> 100	> 100	> 100	> 100	< 0.316	97.6	99.6			100	91.8			101	87		90.9	86.2	14.4	14.3	viability, T/C (second compound 0.0316 µM, first compound 0.000316 µM): 99.6%; viability, T/C (second compound 0.0316 µM, first compound 0.001 µM): 105%; viability, T/C [21]: 99.2%; viability, T/C [22]: 103%; viability, T/C (second compound 0.1 µM, first compound 0.000316 µM): 106%; viability, T/C (second compound 0.1 µM, first compound 0.001 µM): 105%; viability, T/C [23]: 96.9%; viability, T/C [24]: 94.3%; viability, T/C (second compound 0.316 µM, first compound 0.000316 µM): 95.9%; viability, T/C (second compound 0.316 µM, first compound 0.001 µM): 107%; viability, T/C [25]: 100%; viability, T/C [26]: 95.9%; viability, T/C (second compound 1 µM, first compound 0.000316 µM): 97.6%; viability, T/C (second compound 1 µM, first compound 0.001 µM): 99%; viability, T/C [27]: 93.7%; viability, T/C [28]: 87.7%; viability, T/C (second compound 3.16 µM, first compound 0.000316 µM): 14.6%; viability, T/C (second compound 3.16 µM, first compound 0.001 µM): 13.1%; viability, T/C [29]: 20.2%; viability, T/C [30]: 16.1%

Source: PubChem BioAssay AID1963860 (Molecular Pharmacology Branch, DTP, NCI, 2024)
